Measurements published in patent US10233186B2, “Inhibitors of activin receptor-like kinase” (BLUEPRINT MEDICINES CORPORATION, priority 2016, dated 2019).

Columns and labels:
[1] = target: T1, ALK2 R206H (GST-tagged mutant ALK2) (Homo sapiens, UniProt Q04771, R206H); experiment: ALK binding assay (LANTHASCREEN TR-FRET competitive binding, displacement of Kinase Tracer 178); details: ALK2 R206H, LANTHASCREEN TR-FRET competitive binding; read-out: Binding Assay (IC50)
T1 construct: purchased Carna Bioscience or ThermoFisher 09-148 or PV6232
T1 sequence (Q04771 21-509 R206H): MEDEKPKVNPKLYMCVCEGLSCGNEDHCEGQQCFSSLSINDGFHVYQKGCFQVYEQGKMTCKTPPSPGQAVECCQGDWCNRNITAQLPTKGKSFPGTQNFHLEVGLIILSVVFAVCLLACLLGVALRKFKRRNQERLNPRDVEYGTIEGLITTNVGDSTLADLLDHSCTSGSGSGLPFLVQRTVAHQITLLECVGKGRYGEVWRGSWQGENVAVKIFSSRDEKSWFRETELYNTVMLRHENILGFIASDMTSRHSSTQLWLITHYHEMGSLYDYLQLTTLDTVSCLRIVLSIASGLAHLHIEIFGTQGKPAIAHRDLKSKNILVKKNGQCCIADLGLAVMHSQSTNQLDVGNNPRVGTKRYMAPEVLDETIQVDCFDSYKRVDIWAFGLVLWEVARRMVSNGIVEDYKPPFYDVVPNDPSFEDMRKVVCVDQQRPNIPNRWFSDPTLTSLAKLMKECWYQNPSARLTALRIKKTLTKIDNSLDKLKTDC

[2] = target: T2, human ALK2 R206H (Homo sapiens, UniProt Q04771, R206H); experiment: Cell-based ALK2-R206H cell activity assay (Smad1-Ser463/Ser465 phosphorylation by AlphaLISA in HEK293-ALK2-R206H cells); details: read-out: Cell Line (Cell Assay IC50)
T2 construct: expressed in transfected cells; host or cells: HEK293 (ATCC CRL1573), lentivirus transduction, blasticidin selection
T2 sequence (Q04771 21-509 R206H): T1 sequence (Q04771 21-509 R206H)
Summary of the method: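 Stable HEK293 cells expressing C-terminally FLAG-tagged human ALK2 R206H (lentiviral, blasticidin-selected) were treated with compounds in 10-point, 3-fold dilutions from 10 μM or 1 μM top, in duplicate. Smad1 Ser463/Ser465 phosphorylation was read by AlphaLISA.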

Row | SMILES | IC50 [1] [nM] | IC50 [2] [nM]
1 | CCNC(=O)N1CCN(c2ccnn3cc(-c4ccc(N5CCN(C(C)C)CC5)cc4)cc23)CC1 [Compound 289] | < 10 | < 100
2 | CCNC(=O)N1CCN(c2ccnn3cc(-c4ccc(C5CCN(C(C)C)CC5)cn4)cc23)CC1 [Compound 290] | < 10 | < 100
3 | CCN1CCN(c2ccc(-c3cc4c(N5CCN(C(=O)[C@@H]6C[C@H]6F)CC5)ccnn4c3)cc2)CC1 [Compound 292] | < 10 | < 100
4 | CCN1CCN(c2ccc(-c3cc4c(N5CCN(C(=O)[C@H]6C[C@H]6F)CC5)ccnn4c3)cc2)CC1 [Compound 293] | < 10 | < 100
5 | CCOC(=O)N1CCN(c2ccnn3cc(-c4ccc(N5CCN(C(C)C)CC5)cc4)cc23)CC1 [Compound 295] | < 10 | < 100
6 | O=C(C1CC(F)(F)C1)N1CCN(c2ccnn3cc(-c4ccc(N5CCNCC5)cc4)cc23)CC1 [Compound 296] | < 10 | 100 to 500
7 | O=C(C1CC1)N1CCN(c2ccnn3cc(-c4ccc(N5CCNCC5C(F)F)cc4)cc23)CC1 (centres unmarked) [Compound 297] | < 10 | < 100
8 | CC(C)N1CC[C@@H](c2ccc(-c3cc4c(N5CCN(C(=O)[C@H]6C[C@@H]6C#N)CC5)ccnn4c3)cc2)C1 [Compound 298] | < 10 | < 100
9 | CCN1CCC(c2ccc(-c3cc4c(N5CCN(C(=O)N6CC(C#N)C6)CC5)ccnn4c3)cc2)C1 (centres unmarked) [Compound 300, 1-(4-(6-(4-(1-ethylpyrrolidin-3-yl)phenyl)pyrrolo[1,2-b]pyridazin-4-yl)piperazine-1-carbonyl)azetidine-3-carbonitrile] | < 10 | < 100
10 | CCN1CCN(c2ccc(-c3cc4c(N5CCN(C(=O)[C@H]6C[C@H]6C#N)CC5)ccnn4c3)cc2)CC1 [Compound 301] | < 10 | 100 to 500
11 | CCN1CCN(c2ccc(-c3cc4c(N5CCN(C(=O)[C@H]6C[C@@H]6C#N)CC5)ccnn4c3)cc2)CC1 [Compound 302] | < 10 | < 100
12 | CCN1CC[C@@H](c2ccc(-c3cc4c(N5CCN(C(=O)N6CC(C#N)C6)CC5)ccnn4c3)cc2)C1 [Compound 303] | < 10 | < 100
13 | CCN1CC[C@H](c2ccc(-c3cc4c(N5CCN(C(=O)N6CC(C#N)C6)CC5)ccnn4c3)cc2)C1 [Compound 304] | < 10 | < 100
14 | O=C(C1CC1)N1CCN(c2ccnn3cc(-c4ccc([C@@H]5CCCN(C6CCC6)C5)cc4)cc23)CC1 [Compound 305] | < 10 | < 100
15 | O=C(C1CC1)N1CCN(c2ccnn3cc(-c4ccc(N5CCN6CCCCC6C5)cc4)cc23)CC1 (centres unmarked) [Compound 307] | < 10 | 100 to 500
16 | CC(C)N1CC2(CN(c3ccc(-c4cc5c(N6CCN(C(=O)C7CC7)CC6)ccnn5c4)cc3)C2)C1 [Compound 308] | < 10 | < 100
17 | N#CC1CN(C(=O)N2CCN(c3ccnn4cc(-c5ccc(OC6CCCNC6)cc5)cc34)CC2)C1 (centres unmarked) [Compound 309] | < 10 | 100 to 500
18 | O=C(C1CC1)N1CCN(c2ccnn3cc(-c4ccc(C5CCN(C6COC6)CC5)cc4)cc23)CC1 [Compound 310] | < 10 | 100 to 500
19 | CC(C)N1CCCC(c2ccc(-c3cc4c(N5CCN(C(=O)C6CCC6)CC5)ccnn4c3)cc2)C1 (centres unmarked) [Compound 312] | < 10 | < 100
20 | CCC(C)N1CCC(c2ccc(-c3cc4c(N5CCN(C(=O)C6CC6)CC5)ccnn4c3)cc2)CC1 (centres unmarked) [Compound 313] | < 10 | < 100
21 | O=C(C1CC1)N1CCN(c2ccnn3cc(-c4ccc(N5CCN(C6COC6)CC5)cc4)cc23)CC1 [Compound 314, cyclopropyl(4-(6-(4-(4-(oxetan-3-yl)piperazin-1-yl)phenyl)pyrrolo[1,2-b]pyridazin-4-yl)piperazin-1-yl)methanone] | 10 to 50 | > 500
22 | O=C(C1CC1)N1CCN(c2ccnn3cc(-c4ccc(N5CCN6CCOCC6C5)cc4)cc23)CC1 (centres unmarked) [Compound 315] | 10 to 50 | 100 to 500
23 | CCN1CCN(c2ccc(-c3cc4c(N5CCN(C(=O)C6CC6)CC5)ccnn4c3)cc2)CC1(C)C [Compound 316] | < 10 | 100 to 500
24 | CCN1CCC(c2ccc(-c3cc4c(N5CCN(C(=O)N6CCCC6)CC5)ccnn4c3)cc2)CC1 [Compound 317] | < 10 | 100 to 500
25 | CC(C)N1CCN(c2ccc(-c3cc4c(N5CCN(C(=O)C6CC6)[C@H](C)C5)ccnn4c3)cc2)CC1 [Compound 318] | < 10 | 100 to 500
